Experiment: Evaluation of solubility in organic solvents (visual observation of complete dissolution)
Assay type: physicochemical
Protocol: [Evaluation of Solubility]
The evaluation of the solubility of the synthesized compound was conducted by the following method.
About 2-3 mg of the compound was precisely weighed, and each solvent was added to the compound such that a predetermined concentration of the solute (0.5 wt %, 0.3 wt %, 0.2 wt %, 0.1 wt %, 0.05 wt %, or 0.03 wt %) was reached. The resultant mixture was stirred for 30 minutes at a predetermined temperature, and then it was evaluated by visual appearance observation whether or not the solute (synthesized compound) was completely dissolved in the solvent, which was the result of the evaluation of the solubility. As the solvent, chloroform (boiling point 61° C.), toluene (boiling point 111° C.), xylene (boiling point 144° C.), mesitylene (boiling point 165° C.), chlorobenzene (boiling point 130° C.), para-chlorotoluene (boiling point 162° C.), and ortho-dichlorobenzene (boiling point 181° C.) were used.

[1] = chloroform, 25° C. (room temperature)

FC(F)(F)c1cc(-c2ccc(-c3c4c(c(-c5ccc(-c6cc(C(F)(F)F)cc(C(F)(F)F)c6)s5)c5nsnc35)N=S=N4)s2)cc(C(F)(F)F)c1 [Compound (C3), 4,8-bis[5-(3,5-bis(trifluoromethyl)phenyl)thiophene-2-yl]benzo[1,2-c:4,5-c′]bis[1,2,5]thiadiazole]
solubility (solute concentration completely dissolved) (chlorobenzene, 130° C.): ≥ 0.1 wt % | solubility (solute concentration completely dissolved) (mesitylene, 130° C.): ≥ 0.1 wt % | solubility (solute concentration completely dissolved) (ortho-dichlorobenzene, 100° C.): ≥ 0.1 wt %

CCCCC(CC)Cc1cc(-c2ccc(-c3c4c(c(-c5ccc(-c6ccc(C(F)(F)F)c(CC(CC)CCCC)c6)s5)c5nsnc35)N=S=N4)s2)ccc1C(F)(F)F (stereo not shown) [Compound (C30)]
solubility (solute concentration completely dissolved) (1-methylnaphthalene, 60° C.): ≥ 0.3 wt % | solubility (solute concentration completely dissolved) (chloroform, 60° C.): ≥ 0.2 wt % | solubility (solute concentration completely dissolved) (mesitylene, 80° C.): ≥ 0.3 wt % | solubility (solute concentration completely dissolved) (ortho-dichlorobenzene, 80° C.): ≥ 0.3 wt % | solubility (solute concentration completely dissolved) (toluene, 80° C.): ≥ 0.3 wt %

FC(F)(F)Oc1cccc(-c2ccc(-c3c4c(c(-c5ccc(-c6cccc(OC(F)(F)F)c6)s5)c5nsnc35)N=S=N4)s2)c1 [Compound (C1), 4,8-bis[5-(3-(trifluoromethoxy)phenyl)thiophene-2-yl]benzo[1,2-c:4,5-c′]bis[1,2,5]thiadiazole]
solubility (solute concentration completely dissolved) (mesitylene, 80° C.): ≥ 0.1 wt % | solubility (solute concentration completely dissolved) (mesitylene, 130° C.): ≥ 0.3 wt % | solubility (solute concentration completely dissolved) (toluene, 100° C.): ≥ 0.1 wt %

CCCCCCCCCc1cc(-c2ccc(-c3c4c(c(-c5ccc(-c6ccc(C#N)c(CCCCCCCCC)c6)s5)c5nsnc35)N=S=N4)s2)ccc1C#N [Compound (C15), 4,8-bis[5-(4-cyano-3-nonylphenyl)thiophene-2-yl]benzo[1,2-c:4,5-c′]bis[1,2,5]thiadiazole]
solubility (solute concentration completely dissolved) (chlorobenzene, 60° C.): ≥ 0.3 wt % | solubility (solute concentration completely dissolved) [1]: ≥ 0.1 wt % | solubility (solute concentration completely dissolved) (chloroform, 60° C.): ≥ 0.2 wt % | solubility (solute concentration completely dissolved) (ortho-dichlorobenzene, 60° C.): ≥ 0.3 wt % | solubility (solute concentration completely dissolved) (para-chlorotoluene, 80° C.): ≥ 0.3 wt %

CCCCCCc1ccc(-c2ccc(-c3c4c(c(-c5ccc(-c6ccc(CCCCCC)c(C#N)c6)s5)c5nsnc35)N=S=N4)s2)cc1C#N [Compound (C7), 4,8-bis[5-(3-cyano-4-hexylphenyl)thiophene-2-yl]benzo[1,2-c:4,5-c′]bis[1,2,5]thiadiazole]
solubility (solute concentration completely dissolved) (chlorobenzene, 25° C.): ≥ 0.1 wt % | solubility (solute concentration completely dissolved) (chlorobenzene, 60° C.): ≥ 0.5 wt % | solubility (solute concentration completely dissolved) (mesitylene, 60° C.): ≥ 0.1 wt % | solubility (solute concentration completely dissolved) (mesitylene, 80° C.): ≥ 0.5 wt % | solubility (solute concentration completely dissolved) (toluene, 60° C.): ≥ 0.1 wt % | solubility (solute concentration completely dissolved) (toluene, 100° C.): ≥ 0.5 wt %

CCCCCCc1cc(-c2ccc(-c3c4c(c(-c5ccc(-c6cc(CCCCCC)c(C#N)c(CCCCCC)c6)s5)c5nsnc35)N=S=N4)s2)cc(CCCCCC)c1C#N [Compound (C22), 4,8-bis[5-(4-cyano-3,5-dihexylphenyl)thiophene-2-yl]benzo[1,2-c:4,5-c′]bis[1,2,5]thiadiazole]
solubility (solute concentration completely dissolved) (1-methylnaphthalene, 25° C. (room temperature)): ≥ 0.1 wt % | solubility (solute concentration completely dissolved) [1]: ≥ 0.1 wt % | solubility (solute concentration completely dissolved) (ortho-dichlorobenzene, 25° C.): ≥ 0.1 wt % | solubility (solute concentration completely dissolved) (toluene, 25° C.): ≥ 0.3 wt %

CCCCCCc1cc(-c2ccc(-c3c4c(c(-c5ccc(-c6ccc(C(F)(F)F)c(CCCCCC)c6)s5)c5nsnc35)N=S=N4)s2)ccc1C(F)(F)F [Compound (C10), 4,8-bis[5-(3-hexyl-4-(trifluoromethyl)phenyl)thiophene-2-yl]benzo[1,2-c:4,5-c′]bis[1,2,5]thiadiazole]
solubility (solute concentration completely dissolved) (chlorobenzene, 25° C.): ≥ 0.03 wt % | solubility (solute concentration completely dissolved) (chlorobenzene, 60° C.): ≥ 0.1 wt % | solubility (solute concentration completely dissolved) (chlorobenzene, 80° C.): ≥ 0.3 wt % | solubility (solute concentration completely dissolved) (mesitylene, 25° C.): ≥ 0.03 wt % | solubility (solute concentration completely dissolved) (ortho-dichlorobenzene, 25° C.): ≥ 0.03 wt % | solubility (solute concentration completely dissolved) (ortho-dichlorobenzene, 60° C.): ≥ 0.1 wt % | solubility (solute concentration completely dissolved) (ortho-dichlorobenzene, 100° C.): ≥ 0.5 wt % | solubility (solute concentration completely dissolved) (toluene, 25° C.): ≥ 0.03 wt %

CCCCCCCCCCc1cc(-c2ccc(-c3c4c(c(-c5ccc(-c6ccc(C#N)c(CCCCCCCCCC)c6)s5)c5nsnc35)N=S=N4)s2)ccc1C#N [Compound (C16), 4,8-bis[5-(4-cyano-3-decylphenyl)thiophene-2-yl]benzo[1,2-c:4,5-c′]bis[1,2,5]thiadiazole]
solubility (solute concentration completely dissolved) (chlorobenzene, 80° C.): ≥ 0.3 wt % | solubility (solute concentration completely dissolved) (chloroform, 60° C.): ≥ 0.2 wt % | solubility (solute concentration completely dissolved) (ortho-dichlorobenzene, 80° C.): ≥ 0.3 wt % | solubility (solute concentration completely dissolved) (para-chlorotoluene, 80° C.): ≥ 0.3 wt %

CCCCCCCCCCCCc1cc(-c2ccc(-c3c4c(c(-c5ccc(-c6ccc(C#N)c(CCCCCCCCCCCC)c6)s5)c5nsnc35)N=S=N4)s2)ccc1C#N [Compound (C17), 4,8-bis[5-(4-cyano-3-dodecylphenyl)thiophene-2-yl]benzo[1,2-c:4,5-c′]bis[1,2,5]thiadiazole]
solubility (solute concentration completely dissolved) (chlorobenzene, 80° C.): ≥ 0.3 wt % | solubility (solute concentration completely dissolved) (chloroform, 60° C.): ≥ 0.2 wt % | solubility (solute concentration completely dissolved) (ortho-dichlorobenzene, 60° C.): ≥ 0.3 wt % | solubility (solute concentration completely dissolved) (para-chlorotoluene, 80° C.): ≥ 0.3 wt % | solubility (solute concentration completely dissolved) (xylene, 100° C.): ≥ 0.3 wt %

CCCCCCCCCCC(F)(F)c1ccc(-c2ccc(-c3c4c(c(-c5ccc(-c6ccc(C(F)(F)CCCCCCCCCC)cc6)s5)c5nsnc35)N=S=N4)s2)cc1 [Compound (RC3), 4,8-bis[5-(4-(1,1-difluoroundecyl)phenyl)thiophene-2-yl]benzo[1,2-c:4,5-c′]bis[1,2,5]thiadiazole, reference compound]
solubility (solute concentration completely dissolved) (chlorobenzene, 60° C.): < 0.03 wt % | solubility (solute concentration completely dissolved) (mesitylene, 60° C.): < 0.03 wt % | solubility (solute concentration completely dissolved) (toluene, 60° C.): < 0.03 wt %

CCCCCCc1cc(-c2ccc(-c3c4c(c(-c5ccc(-c6ccc(OC(F)(F)F)c(CCCCCC)c6)s5)c5nsnc35)N=S=N4)s2)ccc1OC(F)(F)F [Compound (C12)]
solubility (solute concentration completely dissolved) (chlorobenzene, 60° C.): ≥ 0.1 wt % | solubility (solute concentration completely dissolved) (chlorobenzene, 80° C.): ≥ 0.5 wt % | solubility (solute concentration completely dissolved) (mesitylene, 80° C.): ≥ 0.1 wt % | solubility (solute concentration completely dissolved) (mesitylene, 130° C.): ≥ 0.5 wt % | solubility (solute concentration completely dissolved) (ortho-dichlorobenzene, 60° C.): ≥ 0.1 wt % | solubility (solute concentration completely dissolved) (ortho-dichlorobenzene, 80° C.): ≥ 0.5 wt %
